These results are taken from US9540613B2, “Methods for producing insulin-secreting beta cells from human pluripotent stem cells” (Wisconsin Alumni Research Foundation, priority 2013, dated 2017).

Assay [1] deals with PDX1 and insulin protein expression in H1 cells. Briefly: Flow cytometry of PDX1 and insulin protein expression at end of Stage 4. In kind it is cell-based, human. The note with it: for PDX1 and insulin double positive cells: loss of both nicotinamide and Exendin-4 from Stage 4 medium. From the text: To quantify insulin and PDX1 protein expression we optimized a flow cytometry assay. […] The INS-1 cell line is an immortalized pancreatic beta cell line that expresses both PDX1 and insulin. On the bottom left, is our negative control, unstained H1 cells differentiated for 18 days. On the right, is H1 cells differentiated by the current protocol through day 18 stained with Insulin-PB and PDX1-AF488. […] Only 8-11% of the cells are PDX1 and insulin double positive.
To examine protein expression we collected cells at the end of Stage 4 and examined them by flow cytometry.
Thus, the effect of Noggin is context dependent and synergistic with nicotinamide and Exendin-4.
(In general: In flow cytometry, cells or beads pass a laser one at a time.)

The test system of assay [2] is PDX1, NKX6.1, Neurogenin 3 and insulin gene expression. Briefly: QPCR gene expression of endoderm and pancreatic markers in differentiated cells. It counts as cell-based, human. The note with it: presence or absence of nicotinamide at Stage 3. How it is done: QPCR was performed at the end of Stage 4 ([…] Day 18) to examine gene expression of PDX1, a marker of pancreatic epithelium and progenitor cells, insulin, a marker of beta cells, and Sox9 which is expressed in the developing pancreatic epithelium. The gene expression is compared to undifferentiated cells collected at Day 0 and β-Actin is the internal control. […] Human Fetal Pancreas (HFP), gestation 14-20 weeks, is represented as a positive control.
In FIG. 19, the gene expression is compared to undifferentiated cells collected at Day 0 and B-Actin is the internal control. On the y axis is delta CT (instead of fold change), thus, the lower the value the greater the gene expression.
First, alterations at Stage 3 and 4 altered gene expression minimally. […] On the y axis is delta CT (instead of fold change), thus, the lower the value the greater the gene expression. […] In contrast the addition of Noggin at Stage 4, decreased PDX1 and NKX6.1 gene expression and increased Neurogenin 3 expression. There was no difference in insulin gene expression following the addition of Noggin to Stage 4.

Setting [3] is: addition of nicotinamide at Stage 3, cells at end of Stage 4.

As to FGF2: Basic fibroblast growth factor, in assay [1] (FGF2 instead of FGF7 at Stage 2), the insulin protein expression entry is “less insulin protein expression”.
For Exendin-4: a long-acting GLP-1 agonist, the “protein expression of either PDX1 or insulin” value in assay [1] (loss of Exendin-4 from Stage 4 medium) was “little to no difference”. In addition, the “PDX1 and insulin double positive cells” value in assay [1] was “increases PDX1 and insulin double positive cells”.
In the case of `NC(=O)c1cccnc1` [nicotinamide], in assay [2], the “gene expression (delta CT)” value was “did not alter gene expression”. Also, in assay [1] (setting [3]), the PDX1 protein expression entry is listed as “decreased”; the “double positive PDX and insulin positive cells” value is “little difference”; the insulin protein expression entry is recorded as “increased”. In assay [1], the “PDX1 and insulin double positive cells” value was “increases PDX1 and insulin double positive cells”. Moreover, the protein expression result in assay [1] (loss of nicotinamide from Stage 4 medium) is reported as “little to no loss”.
